Results taken from ChEMBL document CHEMBL5357011, “Chemical Catalysis Guides Structural Identification for the Major In Vivo Metabolite of the BET Inhibitor JQ1” (ACS Med Chem Lett, 2024).

How the values were obtained:
Format in all cases: ADME, organism-based
Conditions in all cases: in vivo
[1] = AUC (0 to t) in male C57BL/6NJ mouse at 50 mg/kg, ip measured upto 24 hrs by UHPLC-ESI-Q-Orbitrap-MS analysis; design: time < 24 hrs, dose 50 mg/kg, route ip
[2] = AUC (0 to t) in female C57BL/6NJ mouse at 50 mg/kg, ip measured upto 24 hrs by UHPLC-ESI-Q-Orbitrap-MS analysis; design: dose 50 mg/kg, time < 24 hrs, route ip
[3] = Observed apparent oral clearance in male C57BL/6NJ mouse at 50 mg/kg, ip measured upto 24 hrs by UHPLC-ESI-Q-Orbitrap-MS analysis
[4] = Observed apparent oral clearance in female C57BL/6NJ mouse at 50 mg/kg, ip measured upto 24 hrs by UHPLC-ESI-Q-Orbitrap-MS analysis

In the case of `[2H]C([2H])([2H])c1sc2c(c1C)C(c1ccc(Cl)cc1)=N[C@@H](CC(=O)OC(C)(C)C)c1nnc(C)n1-2`, the AUCt [1] is reported as 94.2 µg/mL/h, the AUCt [2] is reported as 50.5 µg/mL/h and the CL/F [3] is reported as 0.528 (mg)/(ug/ml)/hr.

For `Cc1sc2c(c1C)C(c1ccc(Cl)cc1)=N[C@@H](CC(=O)OC(C)(C)C)c1nnc(C)n1-2`, the AUCt [1] was 75.1 µg/mL/h, the AUCt [2] was 41.1 µg/mL/h and the CL/F [3] was 0.661 (mg)/(ug/ml)/hr. For the same molecule, the CL/F [4] was 1.22 (mg)/(ug/ml)/hr.
